This is an account of results in ChEMBL document CHEMBL4304823, “Photo-induced synthesis of Axinastatin 3 analogs, the secondary structures and their in vitro antitumor activities” (Bioorg Med Chem Lett, 2019).

Series [1] has as its system HepG2. Put plainly: Induction of cell morphological changes in human HepG2 cells assessed as decrease in cell number at 40 uM measured after 0 to 48 hrs by fluorescence inversion microscopy analysis. In kind it is functional, cell-based.
The subject of series [2] is HepG2. In words: Induction of cell death in human HepG2 cells at 40 uM measured after 48 hrs by fluorescence inversion microscopy analysis. The series is classed as functional, cell-based.
The subject of series [3] is HepG2. Put plainly: Induction of cell morphological changes in human HepG2 cells assessed as change in normal spindle cell shape to rounder cells with weak adhesion ability at 40 uM measured after 0 to 48 hrs by fluorescence inversion microscopy analysis. In kind it is functional, cell-based.
The test system of series [4] is HepG2. In words: Antitumour activity against human HepG2 cells assessed as reduction in cell viability incubated for 48 hrs by MTT assay. The series is classed as functional, cell-based. As to conditions: HepG2, 48 h. For orientation: Formazan colour is commonly taken as a measure of viable cells.
The test system of a further series is L929. Put plainly: Cytotoxicity against mouse L929 cells assessed as reduction in cell viability measured after 48 hrs. As to conditions: for IC50: Mus musculus, L929, 48 h; for Activity: mouse, l929, 48 h. The series is classed as cell-based.
For a further series, the system named is HeLa. Put plainly: Antitumour activity against human HeLa cells assessed as reduction in cell viability by MTT assay. The series is classed as functional, cell-based.

Usually IC50 stands for the point on the concentration scale where inhibition reaches its midpoint.

Each structure is given as a SMILES string. In brackets after ≈: the same amount, converted by molar mass. Activity calls are given as the source filed them. The calls are words filed in the database; no cut-off is given here. Some results are limits rather than exact numbers.

For `CC[C@H](C)[C@@H]1NC(=O)CN2C(=O)c3ccccc3[C@@]2(O)CN(Cc2ccccc2)C(=O)[C@H]2CCCN2C(=O)[C@H](C(C)C)NC(=O)[C@H]2CCCN2C(=O)[C@H](CC(C)C)NC1=O`, the result with HepG2 [1], in the series on HepG2 [2] and with HepG2 [3] was Active.

For the compound `CCNC(=O)CC[C@@H]1NC(=O)CN2C(=O)c3ccccc3[C@@]2(O)CN(Cc2ccccc2)C(=O)[C@H]2CCCN2C(=O)[C@H](C(C)C)NC(=O)[C@H]2CCCN2C(=O)[C@H](CC(C)C)NC(=O)[C@H]([C@@H](C)CC)NC1=O`, the values for the concentration for half-maximal inhibition (IC50) in the series with HepG2 [4], in the series with L929 and with HeLa were 64.5 µg/mL (≈ 65.6 µM), 61.1 µg/mL (≈ 62 µM) and 280 µg/mL (≈ 285 µM), respectively. Besides, in the series with L929, the Activity result is on record as “Dose-dependent effect”.

Turning to `CC(=O)O[C@H]1C(=O)[C@@]2(C)[C@H]([C@H](OC(=O)c3ccccc3)[C@]3(O)C[C@H](OC(=O)[C@H](O)[C@@H](NC(=O)c4ccccc4)c4ccccc4)C(C)=C1C3(C)C)[C@]1(OC(C)=O)CO[C@@H]1C[C@@H]2O` [PACLITAXEL], the concentration for half-maximal inhibition (IC50) was 102 µg/mL (≈ 119 µM) in the series on HepG2 [4], 33 µg/mL (≈ 38.6 µM) with L929 and more than 400 µg/mL in the series on HeLa.

Take `CC[C@H](C)[C@@H]1NC(=O)CN2C(=O)c3ccccc3[C@@]2(O)CN(Cc2ccccc2)C(=O)[C@@H]2CCCN2C(=O)[C@H](C(C)C)NC(=O)[C@@H]2CCCN2C(=O)[C@H](CC(C)C)NC1=O`: the IC50 with HepG2 [4] came out at 38.4 µg/mL (≈ 46.4 µM); in the series with L929, 50.5 µg/mL (≈ 61 µM); in the series with HeLa it was 41.2 µg/mL (≈ 49.7 µM). Moreover, the Activity result in the series on L929 is reported as “Dose-dependent effect”.

Take `CC[C@H](C)[C@@H]1NC(=O)CN2C(=O)c3ccccc3[C@]2(O)CN(Cc2ccccc2)C(=O)[C@@H]2CCCN2C(=O)[C@H](C(C)C)NC(=O)[C@@H]2CCCN2C(=O)[C@H](CC(C)C)NC1=O`: the IC50 turned out to be 72.6 µg/mL (≈ 87.6 µM) with HepG2 [4], 86.2 µg/mL (≈ 104 µM) in the series on L929 and 89 µg/mL (≈ 107 µM) in the series with HeLa. In the series with L929, the Activity entry is listed as “Dose-dependent effect”.
